In patent US20250257146A1, “ANTI-TROP2 ANTIBODY-DRUG CONJUGATE” (DAIICHI SANKYO COMPANY, LIMITED, priority 2013, published 2025):

What was measured:
[1] = Self-degradation of released drug derivative with aminal structure; type: physicochemical
topoisomerase I = molecular target: T1, topoisomerase I (Homo sapiens, UniProt P11387); details: compared with SN-38 and topotecan; cited from earlier work
T1 sequence (P11387 1-765): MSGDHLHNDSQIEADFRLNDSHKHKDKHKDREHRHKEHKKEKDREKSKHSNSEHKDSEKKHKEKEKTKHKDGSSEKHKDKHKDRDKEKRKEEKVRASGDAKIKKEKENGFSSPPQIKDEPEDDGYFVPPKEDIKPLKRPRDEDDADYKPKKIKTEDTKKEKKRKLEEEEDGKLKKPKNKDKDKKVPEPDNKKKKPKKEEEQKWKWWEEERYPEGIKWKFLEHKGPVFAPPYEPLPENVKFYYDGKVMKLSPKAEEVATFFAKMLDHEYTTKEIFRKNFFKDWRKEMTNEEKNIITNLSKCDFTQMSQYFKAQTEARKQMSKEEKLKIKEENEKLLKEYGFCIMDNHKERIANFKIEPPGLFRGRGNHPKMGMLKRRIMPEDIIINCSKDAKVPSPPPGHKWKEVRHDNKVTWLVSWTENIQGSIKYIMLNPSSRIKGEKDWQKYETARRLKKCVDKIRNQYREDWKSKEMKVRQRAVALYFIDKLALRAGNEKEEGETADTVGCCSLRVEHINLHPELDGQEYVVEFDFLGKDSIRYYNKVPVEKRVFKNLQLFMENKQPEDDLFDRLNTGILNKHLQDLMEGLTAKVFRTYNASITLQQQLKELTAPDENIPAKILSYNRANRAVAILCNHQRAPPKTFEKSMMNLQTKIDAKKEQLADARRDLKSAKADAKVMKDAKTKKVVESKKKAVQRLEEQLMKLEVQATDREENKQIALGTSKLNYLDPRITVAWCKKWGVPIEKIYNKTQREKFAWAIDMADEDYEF

various cancer cells = details: against various cancer cells; cited from earlier work
human tumor = human tumor subcutaneously transplanted mouse model; cited from earlier work
[2] = molecular target: T2, CHOK1 cells expressing human TROP2 (Homo sapiens, UniProt P09758); test: FACS analysis of TINA1 antibody on TROP2-overexpressing cells; type: cell-based
T2 construct: expressed in transfected cells; host or cells: CHOK1
T2 sequence (P09758 27-323): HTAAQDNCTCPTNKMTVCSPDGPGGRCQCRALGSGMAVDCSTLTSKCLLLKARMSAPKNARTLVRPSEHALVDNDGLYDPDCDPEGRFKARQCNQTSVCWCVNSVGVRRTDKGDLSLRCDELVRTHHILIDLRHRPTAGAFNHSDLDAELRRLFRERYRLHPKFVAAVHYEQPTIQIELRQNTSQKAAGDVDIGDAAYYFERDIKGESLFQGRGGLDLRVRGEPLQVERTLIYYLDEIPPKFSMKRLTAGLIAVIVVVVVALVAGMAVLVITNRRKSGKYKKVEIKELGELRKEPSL
Experimental: Because the antigen of the TINA1 antibody was predicted to be TROP2 from the band pattern, overexpression analysis by gene transfer of cDNA was conducted without mass spectrometry. […] Similar FACS analysis was conducted using a lung cancer cell line PC14, a lung cancer cell line NCI-H322, a lung cancer cell line NCI-H2122, a lung cancer cell line LCAM1, a lung cancer cell line LC2/ad, a pancreatic cancer cell line MIAPaCa2, a pancreatic cancer cell line PK-1, a prostate cancer cell line PC3, a colorectal cancer cell line HCT116, a melanoma cell line A375, an ovarian cancer cell line SKOV3, a hematopoietic tumor cell line RPMI8226, a hematopoietic tumor cell line K562, PBMC (human peripheral blood mononuclear cells), and human platelet. All of the examined lung cancer cell lines were TROP2-positive, and PC3, PK1, and SKOV3 were positive as the cell lines except for the lung cancer ones. On the other hand, all of the normal blood cells were negative.

NCI-H322 cells = test: Internalization activity and immunotoxin activity using DT3C; type: cell-based, human
Text: 4-1) Antibody internalization activity evaluation system A recombinant fusion protein DT3C was produced for the purpose of measuring internalization activity and immunotoxin activity of an antibody. This DT3C is a protein having a catalytic domain of diphtheria toxin (DT) and three antibody-binding regions of protein G. DT3C specifically binds to an Fc moiety of an antibody, is stable, and induces cell death by inhibiting protein synthesis when taken up into cells. By use of this system, the internalization effect of antibody and the cytocidal effect thereof by immunotoxin can be observed at the same time (Yamaguchi, M., Hamada, H., et al., Biochemical and Biophysical Research Communications 454 (2014) 600-603).
4 μg/mL of DT3C was added at 25 μL/well to a 96-well plate, further the culture supernatants of 11 hybridomas obtained by the method of Example 1 or a method equivalent thereto were each added at 25 μL/well to the plate, and the plate was incubated at room temperature for 30 minutes. […] After incubation for 1 hour in a CO2 incubator of 37° C., the number of live cells was measured using a microplate reader (OD450 to OD640, infinite 200, Tecan Trading AG).
Each diluted solution of DT3C (0, 0.004, 0.04, 0.4, 4, or 40 μg/mL) was added at 25 μL/well to a 96-well plate, then each antibody (40 μg/mL) was added at 25 μL/well to the plate, and the plate was incubated at room temperature for 30 minutes. […] After incubation for 1 hour in a CO2 incubator of 37° C., the number of live cells was measured using a plate reader (OD450 to OD640).
Anti-TROP2 antibodies TINA1 (immunogen: lung cancer line NCI-H322), KCL7A3 and KCL2D6 (immunogen: pancreatic cancer cell line KCL-MOH1), Pr1E11 and Pr8H10 (immunogen: prostate cancer cell line Pc-1), and NY16 and NY17 (immunogen: pancreatic cancer cell line PK-1) obtained by the method of Example 1 or a method equivalent thereto, and commercially available 77220 (R&D Systems Inc.) were evaluated for their internalization activity and immunotoxin activity in the same manner as in Example 4-3).

Q: With `CCC1(O)C(=O)OCc2c1cc1n(c2=O)Cc2c-1nc1cc(F)c(C)c3c1c2C(NC(=O)COCN)CC3` (centres unmarked) [NH2—CH2—O—CH2—C(═O)—(NH-DX)] as the molecule, how does the “stability of the aminal structure (self-degradation to HO—CH2—C(═O)—(NH-DX))” value [1] read?
A: unstable

Q: Which “inhibitory activity on topoisomerase I” value (topoisomerase I) does the source give for `CC[C@@]1(O)C(=O)OCc2c1cc1n(c2=O)Cc2c-1nc1cc(F)c(C)c3c1c2[C@@H](N)CC3` [exatecan, (1S,9S)-1-amino-9-ethyl-5-fluoro-2,3-dihydro-9-hydroxy-4-methyl-1H,12H-benzo[de]pyrano[3′,4′:6,7]indolizino[1,2-b]quinolin-10,13(9H,15H)-dione] here?
A: higher than SN-38

Q: And the “in vitro cytocidal activity” value (various cancer cells)?
A: higher in vitro cytocidal activity

Q: What about the antitumor effect (human tumor) of the same molecule?
A: potent antitumor effect

B1: TINA1: antibody produced by the TROP2 hybridoma TINA1; mouse anti-TROP2 monoclonal antibody (antibody, listed as Mus musculus, V domains shown)
VH: QIQLVQSGPELKKPGETVRISCKASGYTFTTAGMQWVQKMPGKGLKWIGWINTHSGVPKYAEDFKGRFAFSLETSASTAYLQISNLKNEDTTTYFCARSGFGSSYWYFDVWGAGTAVTVSS
VL: DIVMTQSHKFMSTSVGDRVSITCKASQDVSTAVAWYQQKPGQSPKLLIYSASYRYTGVPDRFTGSGSGTAFTFTISSVQAEDLAVYYCQQHYITPLTFGAGTKLELKRA
Q: For B1, which FACS response [2] is on record?
A: strong positive response

Q: And the “internalization activity and immunotoxin activity” value (NCI-H322 cells; among the 8 anti-TROP2 antibodies, as Example 4-3, FIG. 12)?
A: strongest activity

Q: What about the “internalization activity and immunotoxin activity” value (NCI-H322 cells; antibody 40 μg/mL + DT3C 0-40 μg/mL, among antibodies against CD59, CD71, EGFR, EpCAM, TROP2, FIG. 11) of the same molecule?
A: strongest internalization activity and immunotoxin activity

Q: What about the “internalization activity and immunotoxin activity” value (NCI-H322 cells; hybridoma culture supernatant + DT3C 4 μg/mL, NCI-H322 cells, 3 days, FIG. 10) of the same molecule?
A: strong internalization activity and immunotoxin activity
